Source: patent US8652523B2, “Oral pharmaceutical formulation in the form of a plurality of microcapsules for prolonged release of active principle(s) with slow solubility” (Flamel Technologies, priority 2002, dated 2014)
In brackets after ≈: the same amount, converted by molar mass.

Tests used:
[1] = Increase in solubility of spironolactone in aqueous solution at pH 6.8, 25° C.; format: physicochemical; settings: pH 6.8, aqueous buffer, without solubilizing agent
[2] = Method for measuring solubility of AP in aqueous solution containing solubilizing agent Cremophor RH 40 (37° C., 6 hours, filtration, HPLC); format: physicochemical
Procedure: The solution is stirred at 37° C. for 6 hours and then filtered through a filter with a 0.2 μm pore diameter. The content of solubilized AP is evaluated by HPLC chromatography or any other suitable analytical technique.
The ability of the solubilizing agent, made of Cremophor® RH 40, to solubilize an active principle, made up of spironolactone, is tested according to the following method for measuring solubility:
The AP is introduced into an aqueous solution containing the solubilizing agent. The solution is stirred at 37° C. for 6 hours and is then filtered through a filter with a 0.2 μm pore diameter. The content of solubilized AP is evaluated by HPLC.

Structure (SMILES): CC(=O)S[C@@H]1CC2=CC(=O)CC[C@]2(C)[C@H]2CC[C@@]3(C)[C@@H](CC[C@@]34CCC(=O)O4)[C@H]12 [spironolactone]
- solubility [1]: ~38 µg/mL (≈ 91.2 µM)
- (Spironolactone) dissolved in solution ([2]; Cremophor RH 40 0 % w/w at 37° C.): <0.1 mg/mL
- (Spironolactone) dissolved in solution ([2]; Cremophor RH 40 1 % w/w at 37° C.): 0.1 mg/mL
- (Spironolactone) dissolved in solution ([2]; Cremophor RH 40 2 % w/w at 37° C.): 0.2 mg/mL
- (Spironolactone) dissolved in solution ([2]; Cremophor RH 40 5 % w/w at 37° C.): 0.4 mg/mL
- (Spironolactone) dissolved in solution ([2]; Cremophor RH 40 10 % w/w at 37° C.): 0.8 mg/mL
- (Spironolactone) dissolved in solution ([2]; Cremophor RH 40 20 % w/w at 37° C.): 1.4 mg/mL
